Test results published in ChEMBL document CHEMBL1201862, “PubChem BioAssay data set” (2004).
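48-hour exposure; five concentrations; linearly interpolated endpoints. Abbreviation: GI50, concentration required for 50% inhibition of growth.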 Calls of active or inactive are those of the source. No stated cut-off is given here; in the data, active = GI50 up to about 1.1 µM and inactive = higher.

Assays:
Assay in all cases: NCI-60 cell line screen, 48 h
RPMI-8226 = test system: RPMI-8226
HCT-15 = test system: HCT-15
KM12 = test system: KM12
MOLT-4 = test system: MOLT-4
XF498 = test system: XF498
A549 = test system: A549
DLD-1 = test system: DLD-1
K562 = test system: K562
RXF 393 = test system: RXF 393
SNB-19 = test system: SNB-19
HOP-92 = test system: HOP-92
UACC-62 = test system: UACC-62
HOP-18 = test system: HOP-18
SF-268 = test system: SF-268
CAKI-1 = test system: CAKI-1
HCC 2998 = test system: HCC 2998
SW-620 = test system: SW-620
NCI-H23 = test system: NCI-H23
TK-10 = test system: TK-10
HL-60 = test system: HL-60
NCI-H522 = test system: NCI-H522
SK-OV-3 = test system: SK-OV-3
HT-29 = test system: HT-29
COLO 205 = test system: COLO 205
LXFL 529 = test system: LXFL 529
Malme-3M = test system: Malme-3M
RXF 631 = test system: RXF 631
M14 = test system: M14
SNB-78 = test system: SNB-78
KM-20L2 = test system: KM-20L2
OVCAR-3 = test system: OVCAR-3
SK-MEL-2 = test system: SK-MEL-2
HOP-62 = test system: HOP-62
M19-MEL = test system: M19-MEL
SNB-75 = test system: SNB-75
CCRF-CEM = test system: CCRF-CEM
EKVX = test system: EKVX
ACHN = test system: ACHN
SN12C = test system: SN12C
SR = test system: SR
OVCAR-4 = test system: OVCAR-4
UACC-257 = test system: UACC-257
SF-295 = test system: SF-295
OVCAR-8 = test system: OVCAR-8
OVCAR-5 = test system: OVCAR-5
786-0 = test system: 786-0
NCI-H460 = test system: NCI-H460
UO-31 = test system: UO-31
LOX IMVI = test system: LOX IMVI
SF-539 = test system: SF-539
A498 = test system: A498
IGROV-1 = test system: IGROV-1
SK-MEL-5 = test system: SK-MEL-5
U-251 = test system: U-251
HCT-116 = test system: HCT-116
SK-MEL-28 = test system: SK-MEL-28
DMS-273 = test system: DMS-273
DMS-114 = test system: DMS-114
NCI-H226 = test system: NCI-H226

CCCCCCCCCCCCCCCCc1c(C(=O)OC)[nH]c(=S)[nH]c1=O
GI50 (RPMI-8226): > 50 µM (inactive) | GI50 (HCT-15): > 50 µM | GI50 (KM12): > 50 µM (inactive) | GI50 (MOLT-4): > 50 µM (inactive) | GI50 (XF498): > 50 µM (inactive) | GI50 (A549): > 50 µM (inactive) | GI50 (DLD-1): > 50 µM (inactive) | GI50 (K562): > 50 µM (inactive) | GI50 (RXF 393): > 50 µM (inactive) | GI50 (SNB-19): > 50 µM (inactive) | GI50 (HOP-92): 12.1 µM (inactive) | GI50 (UACC-62): > 50 µM (inactive) | GI50 (HOP-18): > 50 µM (inactive) | GI50 (SF-268): > 50 µM (inactive) | GI50 (CAKI-1): > 50 µM (inactive) | GI50 (HCC 2998): > 50 µM (inactive) | GI50 (SW-620): > 50 µM (inactive) | GI50 (NCI-H23): > 50 µM (inactive) | GI50 (TK-10): > 50 µM (inactive) | GI50 (HL-60): > 50 µM (inactive) | GI50 (NCI-H522): > 50 µM (inactive) | GI50 (SK-OV-3): > 50 µM (inactive) | GI50 (HT-29): > 50 µM (inactive) | GI50 (COLO 205): > 50 µM (inactive) | GI50 (LXFL 529): > 50 µM (inactive) | GI50 (Malme-3M): > 50 µM (inactive) | GI50 (RXF 631): > 50 µM (inactive) | GI50 (M14): > 50 µM (inactive) | GI50 (SNB-78): > 50 µM (inactive) | GI50 (KM-20L2): > 50 µM (inactive) | GI50 (OVCAR-3): > 50 µM (inactive) | GI50 (SK-MEL-2): > 50 µM (inactive) | GI50 (HOP-62): > 50 µM (inactive) | GI50 (M19-MEL): > 50 µM (inactive) | GI50 (SNB-75): > 50 µM (inactive) | GI50 (CCRF-CEM): > 50 µM (inactive) | GI50 (EKVX): > 50 µM (inactive) | GI50 (ACHN): > 50 µM (inactive) | GI50 (SN12C): > 50 µM (inactive) | GI50 (SR): 0.0151 µM (active) | GI50 (OVCAR-4): > 50 µM (inactive) | GI50 (UACC-257): > 50 µM (inactive) | GI50 (SF-295): > 50 µM (inactive) | GI50 (OVCAR-8): > 50 µM (inactive) | GI50 (OVCAR-5): > 50 µM (inactive) | GI50 (786-0): > 50 µM (inactive) | GI50 (NCI-H460): > 50 µM (inactive) | GI50 (UO-31): > 50 µM (inactive) | GI50 (LOX IMVI): > 50 µM (inactive) | GI50 (SF-539): > 50 µM (inactive) | GI50 (A498): > 50 µM (inactive) | GI50 (IGROV-1): > 50 µM (inactive) | GI50 (SK-MEL-5): > 50 µM (inactive) | GI50 (U-251): > 50 µM (inactive) | GI50 (HCT-116): > 50 µM (inactive) | GI50 (SK-MEL-28): > 50 µM (inactive) | GI50 (DMS-273): > 50 µM (inactive)

COc1cc(=O)oc(/C=C/CO)c1C
GI50 (KM12): > 100 µM (inactive) | GI50 (MOLT-4): > 100 µM (inactive) | GI50 (XF498): > 100 µM (inactive) | GI50 (A549): > 100 µM (inactive) | GI50 (DLD-1): > 100 µM (inactive) | GI50 (K562): > 100 µM (inactive) | GI50 (RXF 393): > 100 µM (inactive) | GI50 (SNB-19): > 100 µM (inactive) | GI50 (HOP-92): > 100 µM (inactive) | GI50 (UACC-62): > 100 µM (inactive) | GI50 (HOP-18): > 100 µM (inactive) | GI50 (SF-268): > 100 µM (inactive) | GI50 (CAKI-1): > 100 µM (inactive) | GI50 (HCC 2998): > 100 µM (inactive) | GI50 (SW-620): > 100 µM (inactive) | GI50 (NCI-H23): > 100 µM (inactive) | GI50 (TK-10): > 100 µM (inactive) | GI50 (HL-60): > 100 µM (inactive) | GI50 (NCI-H522): 28.9 µM (inactive) | GI50 (DMS-114): > 100 µM (inactive) | GI50 (SK-OV-3): > 100 µM (inactive) | GI50 (HT-29): > 100 µM (inactive) | GI50 (COLO 205): > 100 µM (inactive) | GI50 (LXFL 529): > 100 µM (inactive) | GI50 (Malme-3M): > 100 µM (inactive) | GI50 (RXF 631): > 100 µM (inactive) | GI50 (M14): > 100 µM (inactive) | GI50 (KM-20L2): > 100 µM (inactive) | GI50 (OVCAR-3): > 100 µM (inactive) | GI50 (HOP-62): > 100 µM (inactive) | GI50 (M19-MEL): > 100 µM (inactive) | GI50 (SNB-75): > 100 µM (inactive) | GI50 (CCRF-CEM): > 100 µM (inactive) | GI50 (EKVX): > 100 µM (inactive) | GI50 (ACHN): > 100 µM (inactive) | GI50 (SN12C): > 100 µM (inactive) | GI50 (NCI-H226): > 100 µM (inactive) | GI50 (SR): > 100 µM (inactive) | GI50 (OVCAR-4): > 100 µM (inactive) | GI50 (UACC-257): > 100 µM (inactive) | GI50 (SF-295): > 100 µM (inactive) | GI50 (OVCAR-8): > 100 µM (inactive) | GI50 (OVCAR-5): > 100 µM (inactive) | GI50 (786-0): > 100 µM (inactive) | GI50 (UO-31): > 100 µM (inactive) | GI50 (LOX IMVI): > 100 µM (inactive) | GI50 (SF-539): > 100 µM (inactive) | GI50 (A498): > 100 µM (inactive) | GI50 (IGROV-1): > 100 µM (inactive) | GI50 (SK-MEL-5): > 100 µM (inactive) | GI50 (U-251): > 100 µM (inactive) | GI50 (HCT-116): > 100 µM (inactive) | GI50 (SK-MEL-28): > 100 µM (inactive) | GI50 (DMS-273): > 100 µM (inactive)
